Measured values from patent US20150344540A1, “NOVEL GLP-1 RECEPTOR AGONISTS WITH CHOLESTEROL EFFLUX ACTIVITY” (NOVO NORDISK A/S, priority 2012, published 2015).
Like-named read-outs stand apart in the source and are kept apart here. Where a SMILES comes first, the peptide text is derived from it. Where no end group is shown, it is not given here. [ ]: non-standard residue; d: D form. Aib = CC(C)(N)C(=O)O

Target: human GLP-1 receptor (Homo sapiens, UniProt P43220)
Experiment: Functional GLP-1 receptor assay, in vitro potency (CRE luciferase; whole cells)
Format: cell-based
Conditions: BHK cells expressing human GLP-1 receptor
[1] = 0% HSA, read-out: GLP1R CRE luc 0% HSA EC50 Mean Value
[2] = GLP1R CRE luc 1% HSA EC50 Mean Value, 1% HSA

human GLP-1 receptor, sequence (P43220 24-463): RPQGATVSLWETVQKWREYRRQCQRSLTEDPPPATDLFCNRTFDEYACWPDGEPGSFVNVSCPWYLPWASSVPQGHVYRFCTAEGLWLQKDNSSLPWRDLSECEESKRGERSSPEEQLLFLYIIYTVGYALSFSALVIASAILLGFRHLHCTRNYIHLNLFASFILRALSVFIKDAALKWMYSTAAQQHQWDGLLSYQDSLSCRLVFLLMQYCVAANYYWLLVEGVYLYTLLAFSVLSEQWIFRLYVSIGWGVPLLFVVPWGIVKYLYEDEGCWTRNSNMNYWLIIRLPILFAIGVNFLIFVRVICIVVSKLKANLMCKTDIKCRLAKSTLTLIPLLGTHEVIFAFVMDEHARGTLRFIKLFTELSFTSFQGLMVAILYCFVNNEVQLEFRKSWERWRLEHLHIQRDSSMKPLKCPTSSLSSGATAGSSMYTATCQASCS

Compound | EC50 [1] [nM] | EC50 [2] [nM]
CC[C@H](C)[C@H](NC(=O)[C@H](Cc1ccccc1)NC(=O)[C@H](CCC(=O)O)NC(=O)[C@H](CCCCN)NC(=O)[C@H](C)NC(=O)[C@H](CCCCN)NC(=O)[C@H](CCCCN)NC(=O)[C@H](CCC(=O)O)NC(=O)[C@H](CCC(=O)O)NC(=O)[C@H](CC(C)C)NC(=O)[C@H](Cc1ccc(O)cc1)NC(=O)[C@H](CCCCN)NC(=O)[C@H](CO)NC(=O)[C@H](Cc1ccc(O)cc1)NC(=O)[C@H](CC(=O)O)NC(=O)[C@H](CO)NC(=O)[C@@H](NC(=O)[C@H](Cc1ccccc1)NC(=O)[C@@H](NC(=O)CNC(=O)[C@H](CCC(N)=O)NC(=O)[C@H](CO)NC(=O)[C@@H](N)Cc1c[nH]cn1)[C@@H](C)O)[C@@H](C)O)C(=O)N[C@@H](C)C(=O)N[C@@H](Cc1c[nH]c2ccccc12)C(=O)N[C@@H](CC(C)C)C(=O)N[C@@H](CC(C)C)C(=O)N[C@@H](CCC(=O)O)C(=O)N[C@@H](CCCCN)C(=O)NC(C)(C)C(=O)N[C@@H](CCCCN)C(=O)N[C@@H](CCC(=O)O)C(=O)N[C@@H](Cc1ccccc1)C(=O)N[C@@H](CC(C)C)C(N)=O [Compound 58] (H-HSQGTFTSDYSKYLEEKKAKEFIAWLLEK[Aib]KEFL-NH2) | 1.17 | 0.588
HAEGTFTSDVSSYLEGQAAKEFIAWLVEKVKEF-NH2 [Compound 122, [Glu34,Lys35,Val36,Lys37]-GLP-1-(7-37)-peptidyl-Glu-Phe amide] | 0.016 | 0.005
CC[C@H](C)[C@H](NC(=O)[C@H](Cc1ccccc1)NC(=O)[C@H](CCC(=O)O)NC(=O)[C@H](CCCCN)NC(=O)[C@@H](NC(=O)[C@H](C)NC(=O)[C@H](CCC(=O)O)NC(=O)CNC(=O)[C@H](CCC(=O)O)NC(=O)[C@H](CC(C)C)NC(=O)[C@H](Cc1ccc(O)cc1)NC(=O)[C@H](CCC(=O)O)NC(=O)[C@@H](NC(=O)[C@@H](NC(=O)[C@H](CC(=O)O)NC(=O)[C@H](CC(N)=O)NC(=O)[C@@H](NC(=O)[C@H](Cc1ccc(O)cc1)NC(=O)[C@@H](NC(=O)CNC(=O)[C@H](CCC(=O)O)NC(=O)[C@H](C)NC(=O)[C@@H](N)Cc1c[nH]cn1)[C@@H](C)O)[C@@H](C)O)C(C)C)[C@@H](C)O)C(C)C)C(=O)N[C@@H](C)C(=O)N[C@@H](Cc1c[nH]c2ccccc12)C(=O)N[C@@H](CC(C)C)C(=O)N[C@H](C(=O)N[C@@H](CCC(=O)O)C(=O)N[C@@H](CCCCN)C(=O)NC(C)(C)C(=O)N[C@@H](CCCCN)C(=O)N[C@@H](CCC(=O)O)C(=O)N[C@@H](Cc1ccccc1)C(=O)N[C@@H](CC(C)C)C(N)=O)C(C)C [Compound 13, [Tyr12,Asn14,Thr17,Glu18,Glu23,Val25,Glu34,Lys35,Aib36,Lys37]-GLP-1-(7-37)-peptidyl-Glu-Phe-Leu amide] (H-HAEGTYTNDVTEYLEGEAVKEFIAWLVEK[Aib]KEFL-NH2; N-terminus assumed) | – | 0.104
HAEGTFTSDVSSYLEGQAAKEFIAWLVEKVKEFL-NH2 [Compound 104, [Glu34,Lys35,Val36,Lys37]-GLP-1-(7-37)-peptidyl-Glu-Phe-Leu amide] | 0.116 | 0.023
HAEGTFTSDVSSYLEGQAAKEFIAWLVEKVGEFL-NH2 [Compound 108] | 0.059 | 0.017

Second part, the compound after the results:

EC50 [1] [nM] | EC50 [2] [nM] | Compound
0.02 | 0.01 | HAEGTFTSDVSSYLEEEAVKEFIAWLVEKVKEF-NH2 [Compound 132, [Glu22,Glu23,Val25,Glu34,Lys35,Val36,Lys37]-GLP-1-(7-37)-peptidyl-Glu-Phe amide]
0.104 | – | HGEGTFTSDVSSYLEEEAVKEFIAWLVEKVKEF-NH2 [Compound 133, [Gly8,Glu22,Glu23,Val25,Glu34,Lys35,Val36,Lys37]-GLP-1-(7-37)-peptidyl-Glu-Phe amide]
– | 0.023 | H-HAEGTFTSDVSSYLEGQAAKEFIAWLVEGVKEFLEK-OH [Compound 127, [Glu34,Val36,Lys37]-GLP-1-(7-37)-peptidyl-Glu-Phe-Leu-Glu-Lys]
– | 0.114 | HAEGTFTSDVSSYLEEEAVKEFIAWLVEKVKEFL-NH2 [Compound 135, [Glu22,Glu23,Val25,Glu34,Lys35,Val36,Lys37]-GLP-1-(7-37)-peptidyl-Glu-Phe-Leu amide]
